Measured values reported in patent US9688651B2, “Geranyl geranyl acetone analogs and uses thereof” (NYKEN Holding B.V., priority 2012, dated 2017).
“Also recorded” adds a separate entry of the source.

Legend:
HSP70 [1] = assay: HSP70 protein boosting in HL-1 cardiomyocytes after mild heat shock (Western blot); type: cell-based, mouse; design: key to HSP boosting HL-1 cardiomyocytes Protein HSP70: 0 = no induction HSP levels; + = 2-10-fold induction; ++ = 10-30-fold induction; +++ = > 30-fold induction; conditions: mild heat shock 44°C 10 min, then compound 10 μM for 6 hours; Western blot
Method: HL-1 atrial myocytes, a cell line derived from adult mouse atria were obtained from Dr. William Claycomb (Louisiana State University, New Orleans, La., USA). The myocytes were maintained in Complete Claycomb Medium (JRH, UK) supplemented with 100 μM norepinephrine stock (consisting of 10 mM norepinephrine (Sigma, The Netherlands) dissolved in 0.3 mM L-ascorbic acid (Sigma)), 4 mM L-glutamine (Gibco, The Netherlands) and 10% FBS (Sigma). The myocytes were cultured in flasks coated with 0.02% gelatin (Sigma), in a 5% CO2 atmosphere at 37° C.
HL-1 cardiomyocytes were subjected to a mild heat shock of 44° C. for 10 minutes. After a recovery of 10 minutes (37 degrees 5% CO2), compounds were added in a final concentration of 10 μM (dissolved in DMSO, final concentration 0.1%). To control myocytes, 0.1% DMSO was added. After six hours the cells were lysed in RIPA buffer and used for Western blotting as described previously.^3, 10
(§1) Western-blot analysis was performed as described previously^3, 10. Equal amount of protein in SDS-PAGE sample buffer was sonicated before separation on 10% PAA-SDS gels. After transfer to nitrocellulose membranes (Stratagene, The Netherlands), membranes were incubated with primary antibodies against HSP25 (Stressgen, The Netherlands, SPA-801, 1:1000), HSP27 (Stressgen, SPA-800, 1:1000), HSP70 (Stressgen, SPA-810, 1:1000), GAPDH (Affinity Reagents, The Netherlands) or PARP (Santa Cruz, The Netherlands, sc-7150, 1:500). Horseradish peroxidase-conjugated anti-mouse or anti-rabbit (Santa-Cruz Biotechnology, The Netherlands) was used as secondary antibody. Signals were detected by the ECL-detection method (Amersham, The Netherlands) and quantified by densitometry using GeneTools software from Syngene (The Netherlands).
Compounds were also screened for HSP70 boosting effects. Hereto, HL-1 cardiomyocytes were first subjected to a mild heat shock which activates the Heat Shock Factor. After the mild heat shock, compound (10 μM) was added to the medium of HL-1 cardiomyocytes for 6 hours, followed by determination of the HSP70 amount.

HSP27 = HSP27 Western blot in MCF-7 cells; type: cell-based, human; design: key: + = P < 0.05; ++ = P < 0.01; +++ = P < 0.001; conditions: MCF-7 lysate, 16-20 hours
Method: (§2) MCF-7 breast cancer cells were cultured in DMEM supplemented with 10% FCS. Test compounds were added to the medium in a final concentration of […] for 16-20 hours. Ratio death and living cells was determined by using trypan blue staining of death cells. The cell pellets were lysed in RIPA buffer and used for Western blot analysis.
as §1

PARP = PARP cleavage in MCF-7 cells (Western blot); type: cell-based, human; design: key to Cell Death MCF-7 cancer cells PARP: 0 = no dead cells; + = P < 0.05; ++ = P < 0.01; +++ = P < 0.001; conditions: for Cell Death MCF-7 cancer cells PARP: MCF-7 lysate, Western blot, 16-20 hours; for PARP cleavage, indicative of pro-apoptotic caspase activation: MCF-7, 10 μM, 16 hours
Method: as §2, §1
(§3) Since we observed that some compounds aggravate tachypacing-induced contractile dysfunction, we next investigated if these compounds can induce programmed cell death in a human breast cancer cell-line MCF-7. Hereto, MCF-7 cells were incubated for 16 hours with 10 μM of a test compound after which the number of death and living cells was determined. In total 28 compounds were tested for cell death. […] GGA was used as a control as well as non-treated MCF-7 cells. […] The findings indicate that GGA-like compounds which aggravate heart failure can induce programmed cell death in MCF-7 breast cancer cell-line.

HSP70 [2] = assay: HSP70 Western blot in MCF-7 cells; type: cell-based, human; design: key: + = P < 0.05; ++ = P < 0.01; +++ = P < 0.001; conditions: MCF-7 lysate, 16-20 hours
Method: as §2, §1

[3] = system: MCF-7 breast cancer cells; assay: MCF-7 cell death, ratio death/living cells (trypan blue); type: cell-based, human; design: key to Cell Death MCF-7 cancer cells Death/living 100 μM: 0 = no dead cells; + = P < 0.05; ++ = P < 0.01; +++ = P < 0.001; conditions: for Cell Death MCF-7 cancer cells Death/living 100 μM: 16-20 hours, trypan blue; for cell death in MCF-7: 10 μM, 16 hours
Method: MCF-7 breast cancer cells were cultured in DMEM supplemented with 10% FCS. […] Ratio death and living cells was determined by using trypan blue staining of death cells. The cell pellets were lysed in RIPA buffer and used for Western blot analysis.
as §3, with “Hereto, MCF-7 cells were incubated for 16 hours with 10 μM of a test compound after which the number of death and living cells was determined.” left out

SMILES	HSP boosting HL-1 cardiomyocytes Protein HSP70 (HSP70 [1])	Cell Death MCF-7 cancer cells HSP 27 (HSP27)	Cell Death MCF-7 cancer cells PARP (PARP)	Cell Death MCF-7 cancer cells HSP 70 (HSP70 [2])	Cell Death MCF-7 cancer cells Death/living 100 μM [3]	PARP cleavage, indicative of pro-apoptotic caspase activation (PARP)	cell death in MCF-7 [3]
CCOC(=O)C(=Cc1ccccc1)C(=O)CCC=C(C)CCC=C(C)C (mixture of isomers) [Compound 84]	+ (+ = 2-10-fold induction)						
CCOC(=O)CC(=O)CC/C=C(\C)CCC=C(C)C [Compound 21, (E)-Ethyl 7,11-dimethyl-3-oxododeca-6,10-dienoate]	0						
CCOC(=O)C(C)C(=O)CC/C=C(\C)CCC=C(C)C (centres unmarked) [Compound 22]	0						
CCCCCC(C(=O)CC/C=C(\C)CCC=C(C)C)C(=O)OCC (centres unmarked) [Compound 24]	0						
CC(C)=CCC/C(C)=C/CCc1cc(C)n(C)n1 [Compound 33]	+ (+ = 2-10-fold induction)						
CC(C)=CCC/C(C)=C/CCc1cc(C)n(CCC#N)n1 [Compound 34]	0						
CC(C)=CCC/C(C)=C/CCc1cc(C)n(CCO)n1 [Compound 35]	0						
CC(C)=CCC/C(C)=C/CCc1cc(C)nn1-c1ccc(F)cc1 [Compound 39]	0	+ (+ = P < 0.05)	0	0	0		
CC(C)=CCC/C(C)=C/CCc1cc(C)nn1-c1ccccc1F [Compound 40]	0						
CC(C)=CCC/C(C)=C/CCc1cc(C)nn1-c1ccc(C#N)cc1 [Compound 41]	0	+ (+ = P < 0.05)	+ (+ = P < 0.05)	0	+ (+ = P < 0.05)	induced PARP cleavage	significant increase in cell death; also recorded: induce cell death
CC(=O)NC/C=C(\C)CCC=C(C)C [Compound 43]	0						
CCNC(=O)NC/C=C(\C)CCC=C(C)C [Compound 44]	0						
CC(C)=CCC/C(C)=C/CNC(=O)Nc1cccc(F)c1 [Compound 45]	0	0	++ (++ = P < 0.01)		++ (++ = P < 0.01)	induced PARP cleavage	significant increase in cell death; also recorded: induce cell death
CC(C)=CCC/C(C)=C/CNS(=O)(=O)c1ccc(C)cc1 [Compound 53]	+ (+ = 2-10-fold induction)						
CC(C)=CCC/C(C)=C/CNC(=O)CS(C)(=O)=O [Compound 56]	0	0	0	0	0		
CC(C)=CCC/C(C)=C/CCc1cc(O)nn1C [Compound 64]	0						
CC(C)=CCC/C(C)=C/CCc1cc(O)nn1Cc1ccccc1 [Compound 65]	0	+++ (+++ = P < 0.001)	++ (++ = P < 0.01)	++ (++ = P < 0.01)	++ (++ = P < 0.01)	induced PARP cleavage	significant increase in cell death; also recorded: induce cell death
CC(C)=CCC/C(C)=C/Cc1c(O)c2ccccc2oc1=O [Compound 66]	0	+ (+ = P < 0.05)	+ (+ = P < 0.05)	++ (++ = P < 0.01)	0	induced PARP cleavage	
CCCC(C(=O)CC/C=C(\C)CCC=C(C)C)C(=O)OCC (centres unmarked) [Compound 70]	0	+++ (+++ = P < 0.001)	0	++ (++ = P < 0.01)	0		
CCOC(=O)C(CC(=O)O)C(=O)CC/C=C(\C)CCC=C(C)C (centres unmarked) [Compound 78]	0	++ (++ = P < 0.01)	+ (+ = P < 0.05)	0	0	induced PARP cleavage	
CCOC(=O)C(C/C=C(\C)CCC=C(C)C)C(C)=O (centres unmarked) [Compound 81]	0						
CCOC(=O)C(C(=O)CC/C=C(\C)CCC=C(C)C)C(C)C(=O)O (centres unmarked) [Compound 82]	0						
CCOC(=O)CC(C(=O)CC/C=C(\C)CCC=C(C)C)C(=O)OCC (centres unmarked) [Compound 89]	+ (+ = 2-10-fold induction)	0	0	0	0		
CCCC(=O)NC/C=C(\C)CCC=C(C)C [Compound 91]	+ (+ = 2-10-fold induction)						
CCOC(=O)C(=O)NC/C=C(\C)CCC=C(C)C [Compound 97]	0						
CCOC(=O)CC(=O)NC/C=C(\C)CCC=C(C)C [Compound 98]	0	++ (++ = P < 0.01)	0	0	0		
CC(C)=CCC/C(C)=C/CNC(=O)c1ccccc1O [Compound 101]	0	0	++ (++ = P < 0.01)		++ (++ = P < 0.01)	induced PARP cleavage	significant increase in cell death; also recorded: induce cell death
CCC(=O)N(C/C=C(\C)CCC=C(C)C)C(=O)CC [Compound 103]	0	0	0	0	0		
CCCC(=O)N(C/C=C(\C)CCC=C(C)C)C(=O)CCC [Compound 127]	0		0	0	0		
CCCC(=O)C(CC)C(=O)N(C/C=C(\C)CCC=C(C)C)C(=O)CCC (centres unmarked) [Compound 128]	0						
